Target: tPA (Homo sapiens, UniProt P00750)
Test: Chromogenic substrate assay, Ki (Dixon)
Type: biochemical
Method: Chromogenic substrate assays were performed using a Labsystems IEMS (Cergy Pontoise, France) microtiter plate reader. K i values were calculated according to the method of Dixon[65]. In each assay, the compound was tested at a minimum of seven concentrations, in duplicate, to obtain an inhibition curve. The following general procedures were adopted for each assay. In a 96-well microtiter plate, 25 μL of inhibitor solution or buffer was added to 50 μL of substrate. The enzyme solution (25 μL) was added just before the plate was placed in the microtiter plate reader for 1 h at 37 °C. The hydrolysis of the substrate yields p-nitroaniline, which was continuously monitored spectrophotometrically at 405 nm. The maximal initial reaction rates were calculated and expressed as millioptical density per minute.

Chain of tPA (P00750 36-562): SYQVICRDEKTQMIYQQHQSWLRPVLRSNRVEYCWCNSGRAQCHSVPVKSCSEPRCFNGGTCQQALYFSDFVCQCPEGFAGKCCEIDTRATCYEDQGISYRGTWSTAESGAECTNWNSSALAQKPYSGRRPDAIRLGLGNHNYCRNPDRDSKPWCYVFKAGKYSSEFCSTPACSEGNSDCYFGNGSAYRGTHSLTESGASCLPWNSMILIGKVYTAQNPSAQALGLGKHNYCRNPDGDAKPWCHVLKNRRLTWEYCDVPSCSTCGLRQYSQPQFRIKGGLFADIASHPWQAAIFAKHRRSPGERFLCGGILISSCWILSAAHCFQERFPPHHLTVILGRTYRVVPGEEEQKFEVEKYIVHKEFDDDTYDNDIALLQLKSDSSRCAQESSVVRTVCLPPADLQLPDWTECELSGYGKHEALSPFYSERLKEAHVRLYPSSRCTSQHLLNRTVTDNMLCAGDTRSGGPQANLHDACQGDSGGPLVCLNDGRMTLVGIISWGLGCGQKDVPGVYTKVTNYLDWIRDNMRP

Q: How did the Selectivity ratio (K i tPA/K i α-thrombin) turn out when c1ccc2c(NC3CCCC3)nc(Nc3ccncc3)nc2c1 [JJ1] was run?
A: >10,000

Q: What about the Ki (tPA) of the same compound?
A: > 250 µM

Reference: publication PMC5665883, “Antithrombotic properties of JJ1, a potent and novel thrombin inhibitor” (Scientific Reports, 2017)
